Tests used:
hMMP-12 = biological target: T1, hMMP-12 (Homo sapiens, UniProt P39900); assay: SensoLyte 520 MMP-12 fluorimetric enzyme inhibition assay; type: biochemical; details: for IC50: catalytic domain, tested side by side
T1 construct: The catalytic domain (Gly106-Gly263) of human macrophage metalloelastase (hMMP-12); made in house; host or cells: E. coli BL21 Codon Plus (pET21 vector, NdeI/BamHI)

MMP-3 = biological target: T2, MMP-3 (Homo sapiens, UniProt P08254); assay: SensoLyte 520 fluorimetric selectivity assay, MMP-3; type: biochemical; details: agents tested at 25 nM or at 4 nM
T2 construct: purchased AnaSpec 72006
Experimental: (§1) FIG. 2. […] For each indicated enzyme, agents were tested at 25 nM or at 4 nM and percent inhibition was measured using the catalytic domains of the respective enzyme and the SensoLyte® 520 Fluorimetric Assay Kit (Anaspec).
(§2) Enzymatic assays to profile the inhibitory effects of all the compounds on hMMP-12, and against a panel of 5 closely related MMPs (MMP-1, MMP-3, MMP-9, MMP-13, and MMP-14) were performed using the SensoLyte® 520 Fluorimetric Assay Kit (AnaSpec) for each MMPs. Assay kit for MMP-12 Cat. #AS-71157, MMP-1 Cat. #AS-71150, MMP-3 Cat. #AS-71152, MMP-9 Cat. #AS-71155, MMP-13 Cat. #AS-71156, and MMP-14 Cat. #AS-72025. The assay was performed according to their protocols. Briefly, 10 ng of each MMPs were incubated on a black flat-bottom 96-well plate (Cat. #9502867) at RT for 15 minutes in absence or in presence of different concentration of each compound in a total volume of 50 μL. After 15 minutes, 50 μL of each substrate solution were added. The reagents were mixed together by shaking the plate gently for 30 sec. Immediately after the fluorescence was measured using the VICTOR X5 microplate reader (PerkinElmer) every 3 min for 60 min. All the measurement were performed in duplicates. The IC50 values were calculated from dose-response curves using GraphPad Prism 7.

[1] = system: murine model of elastase-induced emphysema; assay: Murine model of elastase-induced emphysema, mean linear intercept analysis; type: in vivo, C57BL/6 mice; details: i.p. once daily for 7 days from day 2 after PPE, day 21
Experimental: C57BL/6 mice were purchased from Jackson Laboratories (Bar Harbor, Me.) and maintained in a pathogen-free vivarium at room temperature with 12-hour light/dark cycles. All mice were 6-8 weeks and both male and female mice were used for the experiment. All animal-use and euthanasia protocols were approved by the UC Riverside Institutional Animal Care and Use Committee (IACUC).
C57BL/6 mice were given a single intranasal instillation with 50 μl of saline or 0.9 U porcine pancreas elastase (Sigma-Aldrich, St. Louis, Mo.) diluted in phosphate buffered saline (IX PBS). Two days following the instillation, mice were treated with 200 μl of vehicle control, MMP-408, compound 25, or compound 26 via intraperitoneal injection. Mice were continually given treatment once a day for 7 consecutive days. Twenty-one days following the initial intranasal instillation, mice were sacrificed. Bronchoalveolar lavage fluid (BALF) was collected by making an incision in the trachea and inserting a cannula with syringe (BD Biosciences, CA), then washing with 1 mL of cold PBS three times. BALF was centrifuged at 1200 RPM for 5 minutes, then cell pellets were combined and resuspended in 200 μl of PBS to be used in cell counts and cell differential analysis. The lungs were isolated, slowly filled with 1 mL of 10% formalin then hung in formalin overnight for fixation. The following day, lungs were moved into 70% ethanol and stored at 4° C. until paraffin-embedding.
Mouse lungs were fixed in formalin and paraffin-embedded, then sectioned and stained in hematoxylin and eosin by the University of California Irvine Department of Pathology Experimental Tissue Resource Core Facility. The lungs were imaged on a Revolve light microscope (La Jolla, Calif.) at 10× magnification. MLI measurements were calculated using an established indirect method on ImageJ software. Briefly, alveolar walls/intersections were counted along a line of known length, then length was divided by the number of intersections to calculate MLI. This process was repeated for a total of five MLI measurements per image, with there being four images per mouse lung. The average MLI measurement for each lung was calculated and statistically analyzed using GraphPad Prism software (San Diego, Calif.).

MMP-1 = biological target: T3, MMP-1 (Homo sapiens, UniProt P03956); assay: SensoLyte 520 fluorimetric selectivity assay, MMP-1; type: biochemical; details: agents tested at 25 nM or at 4 nM
T3 construct: purchased AnaSpec AS-55575-1
T3 sequence (P03956 100-269 limits assumed): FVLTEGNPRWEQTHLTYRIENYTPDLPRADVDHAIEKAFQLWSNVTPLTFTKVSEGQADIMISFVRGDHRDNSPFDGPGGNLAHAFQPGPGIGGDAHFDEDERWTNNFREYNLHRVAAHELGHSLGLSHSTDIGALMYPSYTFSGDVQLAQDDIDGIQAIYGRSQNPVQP
Experimental: as §1, §2

MMP-13 = biological target: T4, MMP-13 (Homo sapiens, UniProt P45452); assay: SensoLyte 520 fluorimetric selectivity assay, MMP-13; type: biochemical; details: agents tested at 25 nM or at 4 nM
T4 construct: purchased AnaSpec AS-72257
Experimental: as §1, §2

MMP-14 = biological target: T5, MMP-14 (Homo sapiens, UniProt P50281); assay: SensoLyte 520 fluorimetric selectivity assay, MMP-14; type: biochemical; details: agents tested at 25 nM or at 4 nM
T5 construct: purchased AnaSpec AS-72068
Experimental: as §1, §2

MMP-9 = biological target: T6, MMP-9 (Homo sapiens, UniProt P14780); assay: SensoLyte 520 fluorimetric selectivity assay, MMP-9; type: biochemical; details: agents tested at 25 nM or at 4 nM
T6 construct: purchased AnaSpec AS-55576-1
Experimental: as §1, §2

[2] = Solubility in dosing formulation; type: physicochemical; details: 10% DMSO, 40% PEG400, 10% (2-hydroxypropyl)-Beta-cyclodextrin in PBS
Experimental: (§3) Compound 25 was administered i.p. (30 mg/kg) to 5 Balb-C mice. Retrorbital bleeding was used to collect blood samples at times 30 min, 1 h, 2 h, 4 h, 8 h, and 24 h and the samples analyzed for compound 25 plasma concentration via extraction followed by LC/MS and compared to a standard calibration curve prepared with purified agent. Compound 25 was soluble in 10% DMSO, 40% PEG400, and 10% (2-hydroxypropyl)-Beta-cyclodextrin in PBS. Mice weight varied between 22 g and 26 g, each receiving approximately 200 μL (weight adjusted to administer 30 mg/Kg of compound 25) of formulated agent. The experiments were conducted at the University of California San Diego in vivo pharmacology core facility, according to a UCSD Institutional Animal Care and Use Committee (IACUC) approved protocol.

[3] = Preliminary pharmacokinetic study in mice; type: in vivo, Balb-C mice
Experimental: as §3

[4] = 30 mg/kg intraperitoneally, mice

T2 sequence (P08254 100-272 limits assumed): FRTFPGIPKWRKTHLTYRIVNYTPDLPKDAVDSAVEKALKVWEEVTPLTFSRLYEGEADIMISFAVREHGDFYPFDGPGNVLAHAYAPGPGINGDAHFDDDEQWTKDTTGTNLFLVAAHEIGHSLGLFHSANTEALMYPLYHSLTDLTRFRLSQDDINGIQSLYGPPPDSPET
T1 sequence (P39900 106-263): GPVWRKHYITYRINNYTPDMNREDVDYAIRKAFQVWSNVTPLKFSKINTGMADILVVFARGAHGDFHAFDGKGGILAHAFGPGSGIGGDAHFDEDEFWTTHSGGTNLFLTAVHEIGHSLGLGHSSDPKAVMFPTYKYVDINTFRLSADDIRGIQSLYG
T6 sequence (P14780 107-444 limits assumed): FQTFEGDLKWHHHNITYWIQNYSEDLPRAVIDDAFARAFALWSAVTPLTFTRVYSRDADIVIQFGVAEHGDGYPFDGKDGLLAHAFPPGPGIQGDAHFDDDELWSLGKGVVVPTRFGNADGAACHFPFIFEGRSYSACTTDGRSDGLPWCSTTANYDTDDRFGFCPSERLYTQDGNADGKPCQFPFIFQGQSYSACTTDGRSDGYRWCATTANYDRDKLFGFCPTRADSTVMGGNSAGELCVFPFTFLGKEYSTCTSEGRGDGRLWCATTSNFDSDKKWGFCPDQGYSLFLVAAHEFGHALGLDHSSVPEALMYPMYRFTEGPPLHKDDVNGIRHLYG

Row | IC50 (hMMP-12) [nM] | inhibition of MMP-3 (MMP-3) | mode of MMP-12 inhibition (hMMP-12) | inhibition of MMP-1 (MMP-1) | inhibition of MMP-13 (MMP-13) | inhibition of MMP-14 (MMP-14) | inhibition of MMP-9 (MMP-9) | solubility in formulation [2] | peak plasma drug concentration [3, 4] [ng/mL] | peak plasma drug concentration (molar) [3, 4] [nM] | peak plasma concentration relative to in vitro IC90 ([3]; mouse, in vivo) [times] | Structure (SMILES) | MLI measurements compared to saline (no PPE)-treated mice [1] | emphysema-like pathology compared to PPE+vehicle-treated mice [1]
1 | ~2.5 | appreciable inhibition | – | – | – | – | – | – | – | – | – | CNC(=O)[C@H](Cc1c[nH]c2ccccc12)NC(=O)[C@@H](CC(=O)NO)CC(C)C [GM6001, reference compound] | – | –
2 | ~4 | appreciable inhibition | competitive inhibitors | did not display significant inhibition | did not display significant inhibition | did not display significant inhibition | did not display significant inhibition | – | – | – | – | COc1ccc(CCC[C@H](NC(=O)CN2CCOCC2)C(=O)N[C@H](CCc2ccc(OC)cc2)C(=O)N[C@H](Cc2ccc(C)cc2)C(=O)NO)cc1 [Compound 26] | no significant differences | significant decrease
3 | – | – | – | – | – | – | – | – | – | – | – | COC(=O)Nc1ccc2oc3cc(S(=O)(=O)N[C@H](C(=O)O)C(C)C)ccc3c2c1 [MMP408, reference compound] | no significant differences | significant decrease
4 | ~4 | appreciable inhibition | competitive inhibitors | did not display significant inhibition | did not display significant inhibition | did not display significant inhibition | did not display significant inhibition | soluble | ~400 | ~580 | > 20 | COc1ccc(CC[C@@H](NC(=O)[C@H](CCCc2ccccc2)NC(=O)CN2CCOCC2)C(=O)N[C@H](Cc2ccc(C)cc2)C(=O)NO)cc1 [Compound 25] | no significant differences | significant decrease
